# Measurements taken from PMC8945686, “Anticancer Effects with Molecular Docking Confirmation of Newly Synthesized Isatin Sulfonamide Molecular Hybrid Derivatives against Hepatic Cancer Cell Lines” (Biomedicines, 2022).
# Marks after values point to notes of the source that are not given here.
# Test system: mice
# Test: In vivo acute (14-day) oral toxicity study
# Conditions: 14 days after single dose, compounds 250 mg/kg oral, doxorubicin 15 mg/kg I.P
# Text: GPower 3.0.10 software was used to estimate the sample size needed for the experiment and the number of mice per group but, according to the Organization for Economic Cooperation and Development (OECD) Test Guidelines No. 407 (OECD, 2008 and updated 2017) and under the International Academy of Science’s Guide for the Care and Use of Laboratory Animals, as well as the ARRIVE guidelines, to use the least number of mice per group for the acute single dose oral toxicity test.
# Animals were divided randomly into nine groups (5 animals per group). Before the experiment, the body weight (BW) of all mice was recorded. All mice were made to fast for 24 h and treated once (day zero) then carefully monitored for 14 days.
# Normal control group: mice received saline orally once;
# Negative control group: mice received vehicle (DMSO) orally once;
# Positive control group: mice were injected with Dox (15 mg/kg BW, i.p.) once.
# Isatin-sulfonamide-derivative-compound-treated groups (2a, 3a, 3d and 4b, 4c and 4d) of mice received 250 mg/kg BW of each orally once.
# The animals’ BWs were recorded at the end of the 14 days of observation. Blood samples were collected from the retro-orbital plexus and allowed to clot. Sera were prepared by centrifugation at 4000 rpm for 15 min and then kept frozen at − 80 °C for liver and kidney function tests (LFTs and KFTs). Thereafter, mice were deprived of food overnight, euthanized, and sacrificed by cervical dislocation. Liver and kidney tissues were collected, washed with ice-cold saline, and weighed. Excised weighed livers and kidneys were fixed in a suitable buffer for histological examination.
# Liver and kidney tissues were fixed in 10% neutral buffered formaldehyde overnight and then embedded in paraffin, […] in serial grades of alcohols, cleared in xylene, and were subjected to […], where 4 μm thick tissue sections were cut by rotatory microtome. Tissue sections were stained with hematoxylin and eosin (H and E) for histological examination using full HD light microscopic imaging system (Leica Microsystems GmbH, Wetzlar, Germany). Standard procedures for sample fixation and staining were done as previously described.
SMILES,S.ALT,S.AST,S.Creatinine,S.D.Bilirubin,S.T.Bilirubin,S.Urea
CCOC(=O)/C(C#N)=C1\C(=O)Nc2ccc(S(=O)(=O)N3CCCCC3)cc21 [Compound 2a],28.42 ± 0.27 ^^ U/L,37.11 ± 0.35 ^^ U/L,0.59 ± 0.04 ^^ mg/dL,0.16 ± 0.003 ^^ mg/dL,0.65 ± 0.018 ^^ mg/dL,52.24 ± 0.65 ^^ mg/dL
O=C1Nc2ccc(S(=O)(=O)N3CCCCC3)cc2/C1=C/C(=O)c1ccc(O)cc1 [Compound 4d],30.14 ± 0.93 ^^ U/L,"38.72 ± 1.37 ^#,^ U/L",0.85 ± 0.03 ^^ mg/dL,0.18 ± 0.004 ^^ mg/dL,0.69 ± 0.016 ^^ mg/dL,48.18 ± 0.53 ^^ mg/dL
Cc1ccc(C(=O)/C=C2\C(=O)Nc3ccc(S(=O)(=O)N4CCCCC4)cc32)cc1 [Compound 4a],28.14 ± 0.56 ^^ U/L,36.51 ± 0.15 ^^ U/L,0.70 ± 0.02 ^^ mg/dL,0.17 ± 0.004 ^^ mg/dL,0.72 ± 0.019 ^^ mg/dL,55.10 ± 2.96 ^^ mg/dL

# Same assay, conditions: single acute oral dose of 250 mg/kg
row,SMILES,Survival over the treatment period (14 days)
1,CCOC(=O)/C(C#N)=C1\C(=O)Nc2ccc(S(=O)(=O)N3CCCCC3)cc21 [Compound 2a],survived
2,O=C1Nc2ccc(S(=O)(=O)N3CCCCC3)cc2/C1=C/C(=O)c1ccc(O)cc1 [Compound 4d],survived
3,Cc1ccc(C(=O)/C=C2\C(=O)Nc3ccc(S(=O)(=O)N4CCCCC4)cc32)cc1 [Compound 4a],survived

# Same assay, conditions: single acute oral dose of 250 mg/kg, 14 days
row,SMILES,"Physical or abnormal changes (body weight, skin, fur, eyes, behavior, overall appearance)"
1,CCOC(=O)/C(C#N)=C1\C(=O)Nc2ccc(S(=O)(=O)N3CCCCC3)cc21 [Compound 2a],No physical or abnormal changes were observed
2,O=C1Nc2ccc(S(=O)(=O)N3CCCCC3)cc2/C1=C/C(=O)c1ccc(O)cc1 [Compound 4d],No physical or abnormal changes were observed
3,Cc1ccc(C(=O)/C=C2\C(=O)Nc3ccc(S(=O)(=O)N4CCCCC4)cc32)cc1 [Compound 4a],No physical or abnormal changes were observed

# Test system: Huh7 cells
# Test: MTT cytotoxicity assay on Huh7 cells
# Assay type: cell-based, human
# Conditions: 48 h, 100 p.p.m (μg/mL)
# Procedure: (§1) MTT-based cell viability assay was carried out to evaluate the antiproliferation potential of the target compounds on HCC cell lines (HepG2 and Huh7). The half maximal inhibitory concentration (IC50) values were calculated against DMSO non-treated HepG2 cells (negative control) and Dox-treated HepG2 cells (positive control). The assay was conducted using 3-(4, 5-di-MethylThiazol-2-yl)-2,5-diphenyl Tetrazolium bromide (MTT) to test cell viability, according to the method described by Mosmann with minor changes. The yellow MTT is reduced in the viable cells to purple formazan. The insoluble formazan is solubilized by DMSO to colored solution measured spectrophotometrically. Briefly, cells were seeded in a 96-well plate at density of 1 × 10^4 cells/well for 24 h in 5% CO2 incubator at 37 °C to allow their adherence. […] After incubation, 20 μL of a 5 mg/mL MTT solution were mixed with the contents of each well, and the plate was incubated for another 4 h. Then, the medium was suctioned, and the wells were washed with PBS. After 2 h of drying, 200 μL of DMSO was added to each well. The plate was set on a shaker to dissolve the formazan crystals. Then, the absorbance was measured spectrophotometrically at 570 nm with a reference wavelength of 630 nm using ELX800 UV universal microplate reader (BioTek Instruments Inc., VT, Santa Clara, CA, USA).
# (§2) All experiment conditions were tested in three replicates. The % cell viability was calculated from the following equation: (mean absorbance of treated sample/mean absorbance of negative control sample) × 100. The % death rate = 100 -% cell viability, and the inhibitory concentration of 50% (IC50) was measured from the exponential curve of viability against concentration (dose–response curve).
row,SMILES,% Death Rate at 100 p.p.m (μg/mL) Huh7
1,CCOC(=O)/C(C#N)=C1\C(=O)Nc2ccc(S(=O)(=O)N3CCCCC3)cc21 [Compound 2a],100 * %

# Same assay, conditions: Homo sapiens, Huh-7, 48 h
row,SMILES,IC50 [µM]
1,CCOC(=O)/C(C#N)=C1\C(=O)Nc2ccc(S(=O)(=O)N3CCCCC3)cc21 [Compound 2a],40 ± 3.8
2,N#C/C(C(N)=O)=C1/C(=O)Nc2ccc(S(=O)(=O)N3CCCCC3)cc21 [Compound 2b],> 100
3,O=C1Nc2ccc(S(=O)(=O)N3CCCCC3)cc2/C1=C/C(=O)c1ccc(O)cc1 [Compound 4d],18.8 ± 0.8
4,Cc1ccc(C(=O)/C=C2\C(=O)Nc3ccc(S(=O)(=O)N4CCCCC4)cc32)cc1 [Compound 4a],> 100
5,Nc1cccc(C(=O)CC2(O)C(=O)Nc3ccc(S(=O)(=O)N4CCCCC4)cc32)c1 (centres unmarked) [Compound 3b],> 100
6,O=C(CC1(O)C(=O)Nc2ccc(S(=O)(=O)N3CCCCC3)cc21)c1ccc(O)cc1 (centres unmarked) [Compound 3d],> 100
7,Nc1ccc(C(=O)CC2(O)C(=O)Nc3ccc(S(=O)(=O)N4CCCCC4)cc32)cc1 (centres unmarked) [Compound 3c],> 100

# Test system: not listed separately
# Test: In vitro safety/cell viability MTT assay on normal RPE1 cells
# Assay type: cell-based, human
# Conditions: human, RPE1 cells (noncancerous); normal RPE1 cells, MTT
row,SMILES,CC50 at 48 h [µM]
1,CCOC(=O)/C(C#N)=C1\C(=O)Nc2ccc(S(=O)(=O)N3CCCCC3)cc21 [Compound 2a],40.3 ± 1.61
2,O=C1Nc2ccc(S(=O)(=O)N3CCCCC3)cc2/C1=C/C(=O)c1ccc(O)cc1 [Compound 4d],11.9 ± 0.7
3,Cc1ccc(C(=O)/C=C2\C(=O)Nc3ccc(S(=O)(=O)N4CCCCC4)cc32)cc1 [Compound 4a],21.9 ± 1.15

# Same assay, conditions: human, RPE1 cells (noncancerous); normal RPE1 cells, MTT, 100 p.p.m (μg/mL)
row,SMILES,"viability at 48 h, 100 p.p.m (μg/mL) [%]"
1,CCOC(=O)/C(C#N)=C1\C(=O)Nc2ccc(S(=O)(=O)N3CCCCC3)cc21 [Compound 2a],4.4
2,O=C1Nc2ccc(S(=O)(=O)N3CCCCC3)cc2/C1=C/C(=O)c1ccc(O)cc1 [Compound 4d],0
3,Cc1ccc(C(=O)/C=C2\C(=O)Nc3ccc(S(=O)(=O)N4CCCCC4)cc32)cc1 [Compound 4a],0

# Test system: HepG2 cells
# Test: MTT cytotoxicity assay on HepG2 cells
# Assay type: cell-based
# Conditions: Homo sapiens, 48 h, 100 p.p.m (μg/mL), read-out: % Death Rate at 100 p.p.m (μg/mL) HepG2
# Procedure: as §1, §2
row,SMILES,cytotoxicity at 100 ppm [%]
1,CCOC(=O)/C(C#N)=C1\C(=O)Nc2ccc(S(=O)(=O)N3CCCCC3)cc21 [Compound 2a],81.5
2,N#C/C(C(N)=O)=C1/C(=O)Nc2ccc(S(=O)(=O)N3CCCCC3)cc21 [Compound 2b],10.2
3,O=C1Nc2ccc(S(=O)(=O)N3CCCCC3)cc2/C1=C/C(=O)c1ccc(O)cc1 [Compound 4d],100
4,Cc1ccc(C(=O)/C=C2\C(=O)Nc3ccc(S(=O)(=O)N4CCCCC4)cc32)cc1 [Compound 4a],100
5,Nc1cccc(C(=O)CC2(O)C(=O)Nc3ccc(S(=O)(=O)N4CCCCC4)cc32)c1 (centres unmarked) [Compound 3b],1.2
6,O=C(CC1(O)C(=O)Nc2ccc(S(=O)(=O)N3CCCCC3)cc21)c1ccc(O)cc1 (centres unmarked) [Compound 3d],19.5
7,Nc1ccc(C(=O)CC2(O)C(=O)Nc3ccc(S(=O)(=O)N4CCCCC4)cc32)cc1 (centres unmarked) [Compound 3c],11.5

# Same assay, conditions: Homo sapiens, HepG2, 48 h
row,SMILES,IC50 [µM]
1,CCOC(=O)/C(C#N)=C1\C(=O)Nc2ccc(S(=O)(=O)N3CCCCC3)cc21 [Compound 2a],54.6 ± 2
2,N#C/C(C(N)=O)=C1/C(=O)Nc2ccc(S(=O)(=O)N3CCCCC3)cc21 [Compound 2b],> 100
3,O=C1Nc2ccc(S(=O)(=O)N3CCCCC3)cc2/C1=C/C(=O)c1ccc(O)cc1 [Compound 4d],13.3 ± 0.75
4,Cc1ccc(C(=O)/C=C2\C(=O)Nc3ccc(S(=O)(=O)N4CCCCC4)cc32)cc1 [Compound 4a],12 ± 0.4
5,Nc1cccc(C(=O)CC2(O)C(=O)Nc3ccc(S(=O)(=O)N4CCCCC4)cc32)c1 (centres unmarked) [Compound 3b],> 100
6,O=C(CC1(O)C(=O)Nc2ccc(S(=O)(=O)N3CCCCC3)cc21)c1ccc(O)cc1 (centres unmarked) [Compound 3d],> 100
7,Nc1ccc(C(=O)CC2(O)C(=O)Nc3ccc(S(=O)(=O)N4CCCCC4)cc32)cc1 (centres unmarked) [Compound 3c],> 100

# Test system: HepG2 cells
# Test: Annexin V/FITC-PI apoptosis assay
# Assay type: cell-based, human
# Conditions: HepG2, IC50 of the compound, 24 h (method says 48 h)
# Procedure: Annexin V/PI double staining kit (eBiosciencesDx) was used to detect apoptotic activity of the selected isatin sulfonamide derivatives. The Annexin V corresponding signal provides a very sensitive marker for cellular apoptosis, while PI was used to detect necrotic or late apoptotic cells, identified by the loss of plasma integrity and loss of nuclear membranes.
# Briefly, 1 × 10^5 cells/mL of HepG2 cells were seeded into a 6-well plate and incubated at 37 °C, 5% CO2, overnight. […] After time elapsed, trypsinization of cells was carried out. Washing was done by PBS once, followed by fixation using 70% ethanol. Fixed cells were stored at 4 °C for 2 h, then centrifuged at 500× g for 5 min. Again, cells were washed with PBS prior to staining. An amount of 200 μL of the staining solution (annexin V- fluorescein 5-isothiocyanate (FITC) and PI in binding buffer (10 mM HEPES, 140 mM NaCl, and 2.5 mM CaCl2 at pH 7.4)) were added to the cell suspension and incubated at 37 °C for 20 to 30 min in dark and analyzed with a fluorescence-activated cell sorter (FACS) (BD FACSCalibur, BD Biosciences, California, USA). Data were analyzed using ModFit LT v2.0 (Verity Software House, Topsham, Maine, USA).
# These plots were divided into four regions corresponding to: • (1) Viable cells, which are negative to both probes (PI/FITC −/−), • (2) Apoptotic cells, which are PI negative and Annexin positive (PI/FITC −/+), • (3) Late apoptotic cells, which are both PI and Annexin positive (PI/FITC +/+), • (4) Necrotic cells, which are PI positive and Annexin negative (PI/FITC+/−).
row,SMILES,%Cell Death Late Apoptosis [%]
1,Nc1ccc(C(=O)CC2(O)C(=O)Nc3ccc(S(=O)(=O)N4CCCCC4)cc32)cc1 (centres unmarked) [Compound 3c],18.08
